In brackets after ≈: the same amount, converted by molar mass.
Tested on: Histophilus somni
Assay: minimum inhibitory concentration (MIC)
Protocol: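 Broth microdilution MIC (Sensititre BOPO7F bovine plate, CLSI methods) of 19 antimicrobials against field isolates of P. multocida, M. haemolytica, H. somni (deep nasopharyngeal swabs) and E. coli, Enterococcus spp. (rectal swabs) from weaned dairy heifers. Incubation 16-24 h at 35 C. MIC is the lowest concentration preventing visible growth. Values with <= or > lie at the tested range limits. Trimethoprim-sulfamethoxazole is given as the trimethoprim component of a 1:19 mixture.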

CN(C)[C@@H]1C(O)=C(C(N)=O)C(=O)[C@@]2(O)C(O)=C3C(=O)c4c(O)cccc4[C@@](C)(O)[C@H]3C[C@@H]12 [Tetracycline]
Conditions	minimum inhibitory concentration [mg/L]
isolate (source animal id): 3	4 (≈ 9 µM)
isolate (source animal id): 4	4 (≈ 9 µM)
isolate (source animal id): 7	8 (≈ 18 µM)
isolate (source animal id): 14	8 (≈ 18 µM)
isolate (source animal id): 15	4 (≈ 9 µM)
isolate (source animal id): 17	8 (≈ 18 µM)
isolate (source animal id): 18	8 (≈ 18 µM)
isolate (source animal id): 20	4 (≈ 9 µM)
isolate (source animal id): 23	≤ 0.5
isolate (source animal id): 45	> 8
isolate (source animal id): 53	> 8
isolate (source animal id): 83	2 (≈ 4.5 µM)
isolate (source animal id): 88	8 (≈ 18 µM)
isolate (source animal id): 92	8 (≈ 18 µM)
isolate (source animal id): 93	8 (≈ 18 µM)
isolate (source animal id): 99	4 (≈ 9 µM)
isolate (source animal id): 100	4 (≈ 9 µM)
isolate (source animal id): 105	2 (≈ 4.5 µM)
isolate (source animal id): 107	4 (≈ 9 µM)
isolate (source animal id): 108	8 (≈ 18 µM)
isolate (source animal id): 109	4 (≈ 9 µM)
isolate (source animal id): 110	4 (≈ 9 µM)
isolate (source animal id): 117	8 (≈ 18 µM)
isolate (source animal id): 121	8 (≈ 18 µM)
isolate (source animal id): 123	4 (≈ 9 µM)
isolate (source animal id): 124	2 (≈ 4.5 µM)
isolate (source animal id): 127	1 (≈ 2.25 µM)
isolate (source animal id): 128	> 8
isolate (source animal id): 130	2 (≈ 4.5 µM)
isolate (source animal id): 132	> 8
isolate (source animal id): 135	> 8
isolate (source animal id): 140	> 8
isolate (source animal id): 141	≤ 0.5
isolate (source animal id): 142	1 (≈ 2.25 µM)
isolate (source animal id): 144	2 (≈ 4.5 µM)
isolate (source animal id): 146	> 8
isolate (source animal id): 147	1 (≈ 2.25 µM)
isolate (source animal id): 151	> 8
isolate (source animal id): 153	4 (≈ 9 µM)
isolate (source animal id): 154	1 (≈ 2.25 µM)
isolate (source animal id): 156	2 (≈ 4.5 µM)
isolate (source animal id): 157	4 (≈ 9 µM)
isolate (source animal id): 176	4 (≈ 9 µM)
isolate (source animal id): 183	4 (≈ 9 µM)
isolate (source animal id): 186	4 (≈ 9 µM)
isolate (source animal id): 196	4 (≈ 9 µM)
isolate (source animal id): 198	2 (≈ 4.5 µM)
isolate (source animal id): 200	4 (≈ 9 µM)
isolate (source animal id): 206	4 (≈ 9 µM)
isolate (source animal id): 208	4 (≈ 9 µM)
isolate (source animal id): 210	1 (≈ 2.25 µM)
isolate (source animal id): 212	1 (≈ 2.25 µM)
isolate (source animal id): 215	4 (≈ 9 µM)
isolate (source animal id): 216	4 (≈ 9 µM)
isolate (source animal id): 218	2 (≈ 4.5 µM)
isolate (source animal id): 219	2 (≈ 4.5 µM)
isolate (source animal id): 224	4 (≈ 9 µM)
isolate (source animal id): 228	8 (≈ 18 µM)
isolate (source animal id): 230	4 (≈ 9 µM)
isolate (source animal id): 233	> 8
isolate (source animal id): 238	≤ 0.5
isolate (source animal id): 239	> 8
isolate (source animal id): 241	4 (≈ 9 µM)
isolate (source animal id): 242	4 (≈ 9 µM)
isolate (source animal id): 243	≤ 0.5
isolate (source animal id): 245	> 8
isolate (source animal id): 246	≤ 0.5
isolate (source animal id): 247	4 (≈ 9 µM)
isolate (source animal id): 248	≤ 0.5
isolate (source animal id): 250	8 (≈ 18 µM)
isolate (source animal id): 251	> 8
isolate (source animal id): 252	4 (≈ 9 µM)
isolate (source animal id): 254	4 (≈ 9 µM)
isolate (source animal id): 258	4 (≈ 9 µM)
isolate (source animal id): 259	4 (≈ 9 µM)
isolate (source animal id): 262	> 8
isolate (source animal id): 264	1 (≈ 2.25 µM)
isolate (source animal id): 265	> 8
isolate (source animal id): 266	2 (≈ 4.5 µM)
isolate (source animal id): 267	2 (≈ 4.5 µM)
isolate (source animal id): 269	1 (≈ 2.25 µM)
isolate (source animal id): 271	2 (≈ 4.5 µM)
isolate (source animal id): 272	> 8
isolate (source animal id): 274	> 8
isolate (source animal id): 276	≤ 0.5
isolate (source animal id): 278	2 (≈ 4.5 µM)
isolate (source animal id): 280	> 8
isolate (source animal id): 281	2 (≈ 4.5 µM)
isolate (source animal id): 283	2 (≈ 4.5 µM)
isolate (source animal id): 288	4 (≈ 9 µM)
isolate (source animal id): 291	8 (≈ 18 µM)
isolate (source animal id): 292	2 (≈ 4.5 µM)
isolate (source animal id): 296	1 (≈ 2.25 µM)
isolate (source animal id): 306	2 (≈ 4.5 µM)
isolate (source animal id): 336	2 (≈ 4.5 µM)
isolate (source animal id): 337	2 (≈ 4.5 µM)
isolate (source animal id): 341	1 (≈ 2.25 µM)

C=C[C@]1(C)C[C@@H](OC(=O)CSCCN(CC)CC)[C@]2(C)[C@H](C)CC[C@]3(CCC(=O)[C@H]32)[C@@H](C)[C@@H]1O [Tiamulin]
Conditions	minimum inhibitory concentration [mg/L]
isolate (source animal id): 3	1 (≈ 2.03 µM)
isolate (source animal id): 4	1 (≈ 2.03 µM)
isolate (source animal id): 7	1 (≈ 2.03 µM)
isolate (source animal id): 14	2 (≈ 4.05 µM)
isolate (source animal id): 15	1 (≈ 2.03 µM)
isolate (source animal id): 17	1 (≈ 2.03 µM)
isolate (source animal id): 18	1 (≈ 2.03 µM)
isolate (source animal id): 20	≤ 0.5
isolate (source animal id): 23	1 (≈ 2.03 µM)
isolate (source animal id): 45	2 (≈ 4.05 µM)
isolate (source animal id): 53	2 (≈ 4.05 µM)
isolate (source animal id): 83	1 (≈ 2.03 µM)
isolate (source animal id): 88	1 (≈ 2.03 µM)
isolate (source animal id): 92	2 (≈ 4.05 µM)
isolate (source animal id): 93	1 (≈ 2.03 µM)
isolate (source animal id): 99	2 (≈ 4.05 µM)
isolate (source animal id): 100	2 (≈ 4.05 µM)
isolate (source animal id): 105	1 (≈ 2.03 µM)
isolate (source animal id): 107	2 (≈ 4.05 µM)
isolate (source animal id): 108	2 (≈ 4.05 µM)
isolate (source animal id): 109	2 (≈ 4.05 µM)
isolate (source animal id): 110	2 (≈ 4.05 µM)
isolate (source animal id): 117	1 (≈ 2.03 µM)
isolate (source animal id): 121	1 (≈ 2.03 µM)
isolate (source animal id): 123	1 (≈ 2.03 µM)
isolate (source animal id): 124	2 (≈ 4.05 µM)
isolate (source animal id): 127	1 (≈ 2.03 µM)
isolate (source animal id): 128	1 (≈ 2.03 µM)
isolate (source animal id): 130	1 (≈ 2.03 µM)
isolate (source animal id): 132	2 (≈ 4.05 µM)
isolate (source animal id): 135	1 (≈ 2.03 µM)
isolate (source animal id): 140	2 (≈ 4.05 µM)
isolate (source animal id): 141	2 (≈ 4.05 µM)
isolate (source animal id): 142	2 (≈ 4.05 µM)
isolate (source animal id): 144	2 (≈ 4.05 µM)
isolate (source animal id): 146	1 (≈ 2.03 µM)
isolate (source animal id): 147	2 (≈ 4.05 µM)
isolate (source animal id): 151	1 (≈ 2.03 µM)
isolate (source animal id): 153	2 (≈ 4.05 µM)
isolate (source animal id): 154	2 (≈ 4.05 µM)
isolate (source animal id): 156	2 (≈ 4.05 µM)
isolate (source animal id): 157	2 (≈ 4.05 µM)
isolate (source animal id): 176	4 (≈ 8.1 µM)
isolate (source animal id): 183	2 (≈ 4.05 µM)
isolate (source animal id): 186	2 (≈ 4.05 µM)
isolate (source animal id): 196	2 (≈ 4.05 µM)
isolate (source animal id): 198	1 (≈ 2.03 µM)
isolate (source animal id): 200	2 (≈ 4.05 µM)
isolate (source animal id): 206	1 (≈ 2.03 µM)
isolate (source animal id): 208	2 (≈ 4.05 µM)
isolate (source animal id): 210	≤ 0.5
isolate (source animal id): 212	≤ 0.5
isolate (source animal id): 215	2 (≈ 4.05 µM)
isolate (source animal id): 216	2 (≈ 4.05 µM)
isolate (source animal id): 218	2 (≈ 4.05 µM)
isolate (source animal id): 219	2 (≈ 4.05 µM)
isolate (source animal id): 224	2 (≈ 4.05 µM)
isolate (source animal id): 228	2 (≈ 4.05 µM)
isolate (source animal id): 230	2 (≈ 4.05 µM)
isolate (source animal id): 233	1 (≈ 2.03 µM)
isolate (source animal id): 238	≤ 0.5
isolate (source animal id): 239	2 (≈ 4.05 µM)
isolate (source animal id): 241	2 (≈ 4.05 µM)
isolate (source animal id): 242	2 (≈ 4.05 µM)
isolate (source animal id): 243	2 (≈ 4.05 µM)
isolate (source animal id): 245	2 (≈ 4.05 µM)
isolate (source animal id): 246	4 (≈ 8.1 µM)
isolate (source animal id): 247	2 (≈ 4.05 µM)
isolate (source animal id): 248	1 (≈ 2.03 µM)
isolate (source animal id): 250	2 (≈ 4.05 µM)
isolate (source animal id): 251	2 (≈ 4.05 µM)
isolate (source animal id): 252	4 (≈ 8.1 µM)
isolate (source animal id): 254	2 (≈ 4.05 µM)
isolate (source animal id): 258	2 (≈ 4.05 µM)
isolate (source animal id): 259	1 (≈ 2.03 µM)
isolate (source animal id): 262	1 (≈ 2.03 µM)
isolate (source animal id): 264	≤ 0.5
isolate (source animal id): 265	1 (≈ 2.03 µM)
isolate (source animal id): 266	1 (≈ 2.03 µM)
isolate (source animal id): 267	1 (≈ 2.03 µM)
isolate (source animal id): 269	1 (≈ 2.03 µM)
isolate (source animal id): 271	1 (≈ 2.03 µM)
isolate (source animal id): 272	1 (≈ 2.03 µM)
isolate (source animal id): 274	1 (≈ 2.03 µM)
isolate (source animal id): 276	1 (≈ 2.03 µM)
isolate (source animal id): 278	1 (≈ 2.03 µM)
isolate (source animal id): 280	≤ 0.5
isolate (source animal id): 281	2 (≈ 4.05 µM)
isolate (source animal id): 283	1 (≈ 2.03 µM)
isolate (source animal id): 288	1 (≈ 2.03 µM)
isolate (source animal id): 291	1 (≈ 2.03 µM)
isolate (source animal id): 292	1 (≈ 2.03 µM)
isolate (source animal id): 296	≤ 0.5
isolate (source animal id): 306	1 (≈ 2.03 µM)
isolate (source animal id): 336	1 (≈ 2.03 µM)
isolate (source animal id): 337	1 (≈ 2.03 µM)
isolate (source animal id): 341	1 (≈ 2.03 µM)

Source: the supplement of paper PMC8612539
